Experiments:
[1] = molecular target: T1, CYP1A2 (Homo sapiens, UniProt P05177); test: Luminescent P450-Glo recombinant human CYP1A2 inhibition assay
T1 sequence (P05177 2-516 limits assumed): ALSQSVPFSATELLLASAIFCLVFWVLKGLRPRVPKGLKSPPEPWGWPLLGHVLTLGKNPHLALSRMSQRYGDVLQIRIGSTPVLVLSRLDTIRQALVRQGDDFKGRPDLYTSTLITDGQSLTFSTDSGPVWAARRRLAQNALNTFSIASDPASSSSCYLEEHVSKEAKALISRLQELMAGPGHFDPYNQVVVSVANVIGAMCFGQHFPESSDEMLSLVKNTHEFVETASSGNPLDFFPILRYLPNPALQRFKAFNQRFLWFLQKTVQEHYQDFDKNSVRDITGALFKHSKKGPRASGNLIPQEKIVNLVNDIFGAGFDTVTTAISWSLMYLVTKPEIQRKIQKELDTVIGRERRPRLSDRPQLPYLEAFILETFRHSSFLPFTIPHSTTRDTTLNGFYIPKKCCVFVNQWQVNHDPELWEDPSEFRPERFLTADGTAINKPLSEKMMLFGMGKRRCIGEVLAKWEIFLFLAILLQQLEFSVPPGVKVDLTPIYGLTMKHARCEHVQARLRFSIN
Excerpt: (§1) The inhibitory effects of B. monnieri standardized extract and the constituents bacoside A, bacoside A3, bacopaside II, bacopaside X, bacopasaponin C and bacopaside I on human cytochrome P450 enzyme were examined using an in vitro luminescent assay. The P450-Glo™ substrates are converted by CYP enzymes to a luciferin product that reacts with a Luciferin Detection Reagent to produce light. The amount of light produced is directly proportional to the CYP enzyme activity. The net signals from untreated (added with buffer or solvent) CYP reactions represent total CYP activity (without any inhibition = 100%). […] The test compounds that inhibit CYP enzymes caused a reduction in CYP activity and therefore generated less light/signal.
(§2) The assay was carried out using P450-Glo™ Screening System (Cat.# V9770, V9790, V9880, V9890, V9910) from Promega (Madison, WI, USA). The system includes a membrane preparation containing recombinant human cytochrome P450 (CYP) enzyme, negative control membranes, a luminogenic substrate appropriate for the CYP enzyme, an NADPH regeneration system (containing nicotinamide adenine dinucleotide phosphate (NADP^+), glucose-6-phosphate, magnesium chloride (MgCl2) and glucose-6-phosphate dehydrogenase functioning to initiate and sustain the CYP450 reaction by maintaining a non-limiting NADPH system), reaction buffer, Luciferin Detection Reagent and Luciferin-Free Water. The membranes were prepared from baculovirus-infected insect cells and contained recombinant human CYP enzyme and P450 reductase (and cytochrome b5 for CYP2C9, 2C19 and 3A4). The negative control membranes were devoid of CYP activity. The dried powder of B. monnieri standardized methanolic extract containing 50% bacosides (batch No.: C92352/H) was purchased from Sami Labs Ltd. (Karnataka, India). Bacoside A, bacoside A3, bacopaside II, bacopaside X, bacopasaponin C and bacopaside I were purchased from Chromadex Inc. (Irvine, CA, USA).
(§3) The enzyme assay was performed in 96-well white bottom flat plates (Nunc, Roskilde, Denmark). The concentration of B. monnieri extract was 0.01–1000 µg/mL, and the positive controls and compounds (bacoside A, bacoside A3, bacopaside II, bacopaside X, bacopasaponin C and bacopaside I) were 0.01–100 µM. The concentration of the extracts, compounds and positive controls were prepared at 4× the original concentration. All extracts and compounds were dissolved in dimethyl sulfoxide (DMSO). The organic solvent was kept below 0.25% (v/v) in the incubation mixture. First, 12.5 μL of the 4× test compounds or positive controls (appropriate for each enzyme) were added to the “treated” wells. For the “untreated” (the values from these wells represent total CYP activity) and “minus-P450 control” wells (the values from these wells represent the CYP-independent background luminescence of the assay), 12.5 μL of vehicle (1% DMSO) was added. Then, 12.5 μL of the 4× control reaction mixture (containing membrane preparations devoid of CYP enzymes, the appropriate luminogenic substrate, and potassium phosphate buffer) were added to the minus-P450 control wells, and 12.5 μL of the 4× reaction mixture (containing human CYP membrane preparations, the appropriate luminogenic substrate, and potassium phosphate buffer) were added to all other wells. The plate was pre-incubated at room temperature for 10 min, and then 2× NADPH regeneration system was added to initiate the reaction. After incubation at room temperature for 30 min (45 min for CYP2D6), 50 μL of the reconstituted Luciferin Detection Reagent was added to stop the reaction and generate the luminescent signal. Before reading, the plate was incubated at room temperature for 20 min to stabilize the luminescent signal. The luminescence in all of the samples was measured using an Infinite F200 plate reader (Tecan, Männedorf, Switzerland).

[2] = molecular target: CYP3A4 (Homo sapiens, UniProt P08684); test: Luminescent P450-Glo recombinant human CYP3A4 inhibition assay
Excerpt: as §1, §2, §3

[3] = molecular target: CYP2C9 (Homo sapiens, UniProt P11712); test: Luminescent P450-Glo recombinant human CYP2C9 inhibition assay
Excerpt: as §1, §2, §3

[4] = molecular target: CYP2C19 (Homo sapiens, UniProt P33261); test: Luminescent P450-Glo recombinant human CYP2C19 inhibition assay
Excerpt: as §1, §2, §3

[5] = molecular target: CYP2D6 (Homo sapiens, UniProt P10635); test: Luminescent P450-Glo recombinant human CYP2D6 inhibition assay
Excerpt: as §1, §2, §3

CYP2C19, sequence (P33261 whole entry): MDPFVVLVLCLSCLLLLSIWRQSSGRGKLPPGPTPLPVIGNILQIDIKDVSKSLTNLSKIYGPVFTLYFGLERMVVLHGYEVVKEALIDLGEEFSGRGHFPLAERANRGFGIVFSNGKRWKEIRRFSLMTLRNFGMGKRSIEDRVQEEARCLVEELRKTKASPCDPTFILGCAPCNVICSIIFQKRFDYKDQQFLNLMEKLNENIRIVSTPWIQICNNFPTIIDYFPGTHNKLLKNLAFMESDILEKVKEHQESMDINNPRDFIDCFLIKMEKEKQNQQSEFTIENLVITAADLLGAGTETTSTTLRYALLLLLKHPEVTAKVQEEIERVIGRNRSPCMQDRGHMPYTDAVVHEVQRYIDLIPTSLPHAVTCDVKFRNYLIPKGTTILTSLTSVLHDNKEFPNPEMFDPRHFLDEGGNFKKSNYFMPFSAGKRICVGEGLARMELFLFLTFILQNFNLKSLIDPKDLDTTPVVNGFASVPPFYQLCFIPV
CYP2D6, sequence (P10635 whole entry): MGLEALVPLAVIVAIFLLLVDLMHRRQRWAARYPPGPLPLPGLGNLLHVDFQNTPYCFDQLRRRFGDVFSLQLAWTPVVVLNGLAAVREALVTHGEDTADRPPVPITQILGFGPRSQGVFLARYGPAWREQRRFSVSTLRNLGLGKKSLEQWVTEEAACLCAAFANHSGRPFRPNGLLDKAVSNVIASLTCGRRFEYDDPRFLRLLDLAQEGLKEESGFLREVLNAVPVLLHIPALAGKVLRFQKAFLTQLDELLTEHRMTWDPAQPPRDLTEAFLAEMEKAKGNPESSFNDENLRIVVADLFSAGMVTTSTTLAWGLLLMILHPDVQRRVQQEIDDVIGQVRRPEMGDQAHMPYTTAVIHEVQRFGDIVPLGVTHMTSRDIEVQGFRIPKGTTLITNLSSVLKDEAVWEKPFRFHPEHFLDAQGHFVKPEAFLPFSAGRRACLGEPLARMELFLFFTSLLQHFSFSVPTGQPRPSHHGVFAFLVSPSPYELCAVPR
CYP3A4, sequence (P08684 2-503): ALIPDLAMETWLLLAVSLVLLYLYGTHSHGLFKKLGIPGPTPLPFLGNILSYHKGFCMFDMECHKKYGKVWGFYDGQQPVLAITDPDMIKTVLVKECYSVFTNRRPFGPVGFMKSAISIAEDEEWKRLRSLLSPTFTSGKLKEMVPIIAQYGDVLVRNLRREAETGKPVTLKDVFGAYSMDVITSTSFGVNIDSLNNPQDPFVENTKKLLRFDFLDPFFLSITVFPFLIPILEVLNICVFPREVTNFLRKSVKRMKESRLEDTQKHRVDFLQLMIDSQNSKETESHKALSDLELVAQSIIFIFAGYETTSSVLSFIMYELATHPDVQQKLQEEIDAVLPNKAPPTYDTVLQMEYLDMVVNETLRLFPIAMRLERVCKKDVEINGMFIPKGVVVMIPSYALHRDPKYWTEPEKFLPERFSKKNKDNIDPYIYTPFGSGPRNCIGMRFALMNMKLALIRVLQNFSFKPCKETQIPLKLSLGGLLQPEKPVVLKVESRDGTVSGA
CYP2C9, sequence (P11712 whole entry): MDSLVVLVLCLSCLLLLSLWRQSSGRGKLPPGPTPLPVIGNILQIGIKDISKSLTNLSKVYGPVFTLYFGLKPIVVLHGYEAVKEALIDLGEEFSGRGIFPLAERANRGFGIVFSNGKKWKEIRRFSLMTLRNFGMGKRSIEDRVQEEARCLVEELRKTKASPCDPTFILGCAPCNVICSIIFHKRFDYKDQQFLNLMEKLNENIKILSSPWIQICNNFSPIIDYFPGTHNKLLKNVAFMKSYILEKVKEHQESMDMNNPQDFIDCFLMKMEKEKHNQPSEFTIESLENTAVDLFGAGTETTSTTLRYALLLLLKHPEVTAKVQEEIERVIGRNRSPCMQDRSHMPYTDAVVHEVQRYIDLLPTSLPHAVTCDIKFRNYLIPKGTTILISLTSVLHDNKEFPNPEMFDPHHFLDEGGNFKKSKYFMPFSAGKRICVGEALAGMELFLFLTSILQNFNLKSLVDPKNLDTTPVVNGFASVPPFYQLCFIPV

Structure (SMILES)	IC50 [1] [µM]	IC50 [2] [µM]	IC50 [3] [µM]	IC50 [4] [µM]	IC50 [5] [µM]	Inhibition of CYP1A2 in words ([1]; concentrations up to 100 µM)	Inhibition of CYP3A4 in words ([2]; concentrations up to 100 µM)	Inhibition of CYP2C9 in words ([3]; concentrations up to 100 µM)	Inhibition of CYP2C19 in words ([4]; concentrations up to 100 µM)	Inhibition of CYP2D6 in words ([5]; concentrations up to 100 µM)
CC(C)=C[C@H]1C[C@](C)(O)[C@@H]2[C@H]3CC[C@@H]4[C@@]5(C)CC[C@H](O[C@@H]6O[C@H](CO)[C@@H](O)[C@H](O[C@@H]7O[C@H](CO)[C@@H](O)[C@H](O)[C@H]7O)[C@H]6O[C@@H]6O[C@@H](CO)[C@H](O)[C@H]6O)C(C)(C)[C@@H]5CC[C@@]4(C)[C@@]34CO[C@@]2(C4)O1 [bacoside A3]	> 100	> 100	> 100	> 100	> 100	negligible inhibition	negligible inhibition	negligible inhibition	negligible inhibition	negligible inhibition
CC(C)=CC1COC23CC4(CO2)C(CCC2C5(C)CCC(OC6OCC(O)C(OC7OC(COS(=O)(=O)O)C(O)C(O)C7O)C6OC6OC(CO)C(O)C6O)C(C)(C)C5CCC24C)C3C1(C)O (stereo not drawn) [bacopaside I]	> 100	> 100	> 100	> 100	> 100	–	–	–	–	–

Second part, led by results:

IC50 [1] [µM]	IC50 [2] [µM]	IC50 [3] [µM]	IC50 [4] [µM]	IC50 [5] [µM]	Structure (SMILES)	Inhibition of CYP1A2 in words ([1]; concentrations up to 100 µM)	Inhibition of CYP3A4 in words ([2]; concentrations up to 100 µM)	Inhibition of CYP2C9 in words ([3]; concentrations up to 100 µM)	Inhibition of CYP2C19 in words ([4]; concentrations up to 100 µM)	Inhibition of CYP2D6 in words ([5]; concentrations up to 100 µM)
> 100	> 100	> 100	> 100	> 100	CC(C)=CC1COC23CC4(CO2)C(CCC2C5(C)CCC(OC6OC(CO)C(O)C(OC7OC(CO)C(O)C(O)C7O)C6OC6OC(CO)C(O)C6O)C(C)(C)C5CCC24C)C3C1(C)O (stereo not drawn) [bacopaside II]	–	–	–	–	–
> 100	> 100	> 100	> 100	> 100	CC(C)=C[C@H]1C[C@](C)(O)[C@@H]2[C@H]3CC[C@@H]4[C@@]5(C)CC[C@H](O[C@@H]6OC[C@H](O)[C@H](O[C@@H]7O[C@H](CO)[C@@H](O)[C@H](O)[C@H]7O)[C@H]6O[C@@H]6O[C@@H](CO)[C@H](O)[C@H]6O)C(C)(C)[C@@H]5CC[C@@]4(C)[C@@]34CO[C@@]2(C4)O1 [bacopaside X]	–	–	–	–	–
> 100	> 100	> 100	> 100	> 100	CC(C)=C[C@@H]1CO[C@]23C[C@]4(CO2)[C@H](CC[C@@H]2[C@@]5(C)CC[C@H](O[C@@H]6OC[C@H](O)[C@H](O[C@@H]7O[C@H](CO)[C@@H](O)[C@H](O)[C@H]7O)[C@H]6O[C@@H]6O[C@@H](CO)[C@H](O)[C@H]6O)C(C)(C)[C@@H]5CC[C@]24C)[C@H]3[C@@]1(C)O [bacopasaponin C]	–	–	–	–	–

Source: article PMC6271976, “Inhibition of Human Cytochrome P450 Enzymes by Bacopa monnieri Standardized Extract and Constituents” (Molecules, 2014)
